Laboratory results: patent US4518581A, “Imparting low- or anti-cariogenic property to orally-usable products” (Kabushiki Kaisha Hayashibara Seibutsu Kagaku Kenkyujo, priority 1981, dated 1985)

Tests used:
[1] = target: T1, water-insoluble glucan producing enzyme (Streptococcus downei, UniProt P27470); assay: Effect of saccharides on formation of water-insoluble glucan from sucrose (Experiment 3); type: biochemical, Streptococcus mutans 6715 strain; conditions: saccharide reduced to 10% against sucrose: 1 ml 4 w/v % sucrose plus 1 ml 0.4 w/v % saccharide, 37° C., 16 hours
T1 construct: to the supernatant was added with ammonium sulfate to give 60% saturation; endogenous in cells; host or cells: Streptococcus mutans 6715 strain (today S. sobrinus), culture supernatant, ammonium sulfate precipitate, dialyzed
T1 sequence (P27470 39-1592): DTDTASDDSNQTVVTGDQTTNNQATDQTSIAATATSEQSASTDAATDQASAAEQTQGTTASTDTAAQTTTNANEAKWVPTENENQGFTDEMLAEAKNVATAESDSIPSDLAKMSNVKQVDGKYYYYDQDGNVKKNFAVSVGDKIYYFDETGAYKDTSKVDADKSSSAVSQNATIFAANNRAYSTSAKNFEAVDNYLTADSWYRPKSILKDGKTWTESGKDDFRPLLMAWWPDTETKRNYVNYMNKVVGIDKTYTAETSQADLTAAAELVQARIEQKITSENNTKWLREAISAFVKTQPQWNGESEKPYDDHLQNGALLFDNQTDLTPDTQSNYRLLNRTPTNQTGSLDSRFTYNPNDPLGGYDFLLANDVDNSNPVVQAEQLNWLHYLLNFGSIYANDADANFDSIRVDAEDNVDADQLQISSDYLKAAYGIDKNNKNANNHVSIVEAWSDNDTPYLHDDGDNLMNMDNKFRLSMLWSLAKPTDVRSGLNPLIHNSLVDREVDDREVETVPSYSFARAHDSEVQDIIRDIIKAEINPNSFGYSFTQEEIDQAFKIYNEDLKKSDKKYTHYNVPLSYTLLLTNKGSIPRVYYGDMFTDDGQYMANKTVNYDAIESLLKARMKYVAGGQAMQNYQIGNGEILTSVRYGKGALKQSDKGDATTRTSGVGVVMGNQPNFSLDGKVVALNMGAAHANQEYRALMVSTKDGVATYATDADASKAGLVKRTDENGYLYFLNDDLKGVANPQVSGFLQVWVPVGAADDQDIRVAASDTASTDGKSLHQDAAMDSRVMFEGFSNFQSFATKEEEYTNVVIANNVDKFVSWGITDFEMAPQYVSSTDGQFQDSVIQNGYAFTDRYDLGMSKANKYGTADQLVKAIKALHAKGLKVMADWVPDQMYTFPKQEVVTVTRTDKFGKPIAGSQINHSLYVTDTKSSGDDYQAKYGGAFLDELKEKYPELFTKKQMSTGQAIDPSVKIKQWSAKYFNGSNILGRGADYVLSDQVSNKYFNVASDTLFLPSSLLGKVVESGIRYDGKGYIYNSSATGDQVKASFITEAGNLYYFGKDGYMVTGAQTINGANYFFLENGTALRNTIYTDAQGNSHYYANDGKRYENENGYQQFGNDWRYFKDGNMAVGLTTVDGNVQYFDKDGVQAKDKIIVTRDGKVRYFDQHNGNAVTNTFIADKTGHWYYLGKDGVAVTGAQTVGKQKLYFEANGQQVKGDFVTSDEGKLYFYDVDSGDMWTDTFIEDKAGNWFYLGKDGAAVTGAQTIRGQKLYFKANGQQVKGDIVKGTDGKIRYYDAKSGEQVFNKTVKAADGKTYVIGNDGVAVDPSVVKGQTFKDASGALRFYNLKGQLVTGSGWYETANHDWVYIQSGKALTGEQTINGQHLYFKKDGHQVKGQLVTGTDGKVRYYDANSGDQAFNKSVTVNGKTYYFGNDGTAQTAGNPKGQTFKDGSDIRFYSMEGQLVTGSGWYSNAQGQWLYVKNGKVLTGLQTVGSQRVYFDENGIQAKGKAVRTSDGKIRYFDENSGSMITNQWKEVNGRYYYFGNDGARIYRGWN

[2] = test system: Streptococcus mutans 6715 strain; assay: Organic acid formation from saccharides by Streptococcus mutans cells, pH-measurement (Experiment 4); type: cell-based; conditions: 37° C., 30 minutes; for organic acid formation from the saccharide: Streptococcus mutans 6715 cells; for pH-Level of the reaction mixture (organic acid formation): cell suspension, Stephan's buffer (pH 7.0), saccharide solution
Procedure: Organic acid formation from some saccharides by Streptococcus mutans was tested: Streptococcus mutans 6715 strain was cultivaed similarly as in EXPERIMENT 1, and the cells, obtained by centrifuging the culture, were washed with 0.9 w/v % sodium chloride solution, followed by additional centrifugation. Two ml of a mixture solution, consisting of 0.2 ml of the cell suspension, prepared from about 100 ml of the culture, 1.5 ml of Stephan's buffer, and 0.3 ml aqueous solution of each saccharide as listed in TABLE II, was incubated at 37° C. for 30 minutes, followed by pH-measurement of the reaction mixture. The Stephan's buffer was prepared by the method as reported by R. M. Stephan et al., Journal of Dental Research, Vol.26, pp.15-41 (1947): One ml of Solution I, prepared by dissolving 17.89 g Na2 HPO4. 12H2 O, 7.92 g KOH and 6.81 g KH2 PO4 in water to give a final volume of 100 ml, was placed in a 100-ml volumetric flask, and mixed with about 90 ml of water. To the flask was added 1 ml of Solution II, prepared by dissolving 4.54 g KH2 PO4, 0.32 g MgSO4.7H2 O, 0.57 g CaSO4.2H2 O and 10 ml of 3.5% hydrochloric acid solution in water to give a final volume of 100 ml. This mixture was diluted with additional water to obtain 100 ml of Stephan's buffer (pH 7.0).
The results are given in TABLE II, wherein the organic acid formation from the saccharides can be estimated by the pH-values.

[3] = target: T1, water-insoluble glucan producing enzyme; assay: Effect of saccharides on formation of water-insoluble glucan from sucrose (Experiment 3); type: biochemical, Streptococcus mutans 6715 strain; conditions: 1 ml 4 w/v % sucrose plus 1 ml 4 w/v % saccharide, 0.02 units enzyme, 37° C., 16 hours; sucrose control 300
Procedure: After completion of the cultivation, the culture was separated into cell precipitant and supernatant. Thereafter, to the supernatant was added with ammonium sulfate to give 60% saturation, and the resultant precipitant was dialyzed against 0.1M phosphate buffer (pH 7.2) to obtain an aqueous solution containing the enzyme.
The titers of the enzyme were assayed as follows: A mixture solution, consisting of 1 ml of 0.2M aqueous sucrose solution, 1 ml of water, 1 ml of 0.1M phosphate buffer containing 0.05 w/v % NaN3, and 0.5 ml of the enzyme solution (below 0.05 units), is incubated at 37° C. for 9 hours, followed by centrifugation of the reaction mixture. The resultant precipitant is mixed with 4 ml of 0.5N sodium hydroxide solution, and then incubated at this temperature for an additional one hour to dissolve the precipitant. The amount of water-insoluble glucan formed during the enzymatic reaction is then measured. One unit of the enzyme is defined as the amount of enzyme that transfers 1 μmole glucose from sucrose to the water-insoluble glucan in one minute.
Effects of some saccharides on the formation of water-insoluble glucan were tested: Water-insoluble glucan formation and inhibition thereof were determined according to the enzyme assay method as described in EXPERIMENT 1, except that the mixture solution contained sucrose, or sucrose and each saccharide as listed in TABLE I. The experiment was carried out as follows: A mixture solution, consisting of 1 ml of 4 w/v % aqueous sucrose solution, 1 ml of 4 w/v % aqueous solution of each saccharide as listed in TABLE I, 1.5 ml of 0.1M phosphate buffer containing 0.05 w/v % NaN3, and 0.5 ml of the enzyme solution (0.02 units), was incubated at 37° C. for 16 hours, and the water-insoluble glucan formation in the reaction mixture was determined according to the enzyme assy method.
In a control experiment, 1 ml of the above described saccharide solution was replaced with the same amount of water.
The inhibition degree was calculated with following equation:
Inhibition degree (%)=100-A/B×100
where A and B are respective amounts of the water-insoluble glucan formed (μg/ml) when the mixture solution contained sucrose or sucrose and each of the saccharides.

SMILES	C: inhibition degree of water-insoluble glucan formation [1] [%]	C: inhibition degree of water-insoluble glucan formation ([1]; listed as isomaltotriose)	organic acid formation from the saccharide [2]	pH-Level of the reaction mixture (organic acid formation) [2]	A: amounts of water-insoluble glucan formed [3] [µg/mL]	C: inhibition degree of water-insoluble glucan formation ([1]; listed as panose)
OC[C@H]1O[C@H](OC[C@H]2O[C@H](OC[C@H]3OC(O)[C@H](O)[C@@H](O)[C@@H]3O)[C@H](O)[C@@H](O)[C@@H]2O)[C@H](O)[C@@H](O)[C@@H]1O (stereo partly shown) [Isomaltotriose]	49	45-60%	no organic acid formation	7.0	36	–
OC[C@H]1O[C@H](OC[C@H]2O[C@H](O[C@H]3[C@H](O)[C@@H](O)C(O)O[C@@H]3CO)[C@H](O)[C@@H](O)[C@@H]2O)[C@H](O)[C@@H](O)[C@@H]1O (stereo partly drawn) [Panose, 4-O-α-isomaltosyl glucose]	47	–	no organic acid formation	7.0	48	45-60%
